Reference: patent US11464770B2, “Anticancer pharmaceutical composition” (NATIONAL CANCER CENTER, priority 2016, dated 2022)
Read-outs that look alike come from different tables or passages of the source.

Key:
[1] = tested on: breast cancer cell lines (e.g. MDA-MB-231, SK-BR-3, MDA-MB-468, HCC1954); test: Cell based assay, cell viability (CellTiter-Glo), breast cancer cell lines; details: 72 hours, CellTiter-Glo
Protocol: (§1) Commercially available bladder cancer, prostate cancer, lung cancer, breast cancer, blood cancer, pancreatic cancer, colorectal cancer, brain cancer, neuroblastoma, melanoma, liver cancer, cervical carcinoma, ovarian cancer, renal cancer, and papilloma cell lines were each treated with trypsin-EDTA and cultured, followed by being seeded in each well of a 96 well plate. After 24 hours of treatment at constant temperature, the respective cells were treated with the candidate compound so that a final concentration became 0 to 2 μM. The treated cells were additionally cultured for 72 hours, and cell viability was measured by using an ATP detection method (CellTiter-Glo® Luminescent Cell Viability Assay, Promega).

[2] = tested on: melanoma cell lines; test: Cell based assay, cell viability (CellTiter-Glo), melanoma cell lines; details: Homo sapiens; LOX-IMVI cell line
Protocol: as §1

[3] = Breast cancer cell line MDA-MB-231-L/DOX, read-out: IC50, MDA-MB-231-L/DOX
[4] = Homo sapiens, Breast cancer cell line BT-20, read-out: IC50, BT-20
[5] = Homo sapiens, Breast cancer cell line HCC1395, read-out: IC50, HCC1395
[6] = Homo sapiens, Breast cancer cell line HCC1954, read-out: IC50, HCC1954
[7] = Homo sapiens, Breast cancer cell line JIMT-1, read-out: IC50, JIMT-1
[8] = Homo sapiens, Breast cancer cell line MCF7, read-out: IC50, MCF7
[9] = Homo sapiens, Breast cancer cell line MDA-MB-231, read-out: IC50, MDA-MB-231
[10] = Homo sapiens, Breast cancer cell line MDA-MB-468, read-out: IC50, MDA-MB-468
[11] = Homo sapiens, Breast cancer cell line SK-BR-3, read-out: IC50, SK-BR-3

Compound | IC50 [1, 3] | IC50 [1, 4] | IC50 [1, 5] | IC50 [1, 6] | IC50 [1, 7] | IC50 [1, 8] | IC50 [1, 9] | IC50 [1, 10] | IC50 [1, 11] | IC50 [2]
CSc1c(C(C)=O)c(=O)c2c(Cl)ccc(Br)c2n1C(C)=O [Compound 18, 1,1′-(8-bromo-5-chloro-2-(methylthio)-4-oxoquinoline-1,3(4H)-diyl)bis(ethan-1-one)] | > 2000 nM | > 2000 nM | > 10000 nM | > 2000 nM | > 10000 nM | > 2000 nM | > 2000 nM | > 2000 nM | > 2000 nM | > 2000 nM
CC(=O)c1c([S+](C)[O-])n(C(C)=O)c2c(Br)ccc(Cl)c2c1=O (centres unmarked) [Compound 19, 1,1′-(8-bromo-5-chloro-2-(methylsulfinyl)-4-oxoquinoline-1,3(4H)-diyl)bis(ethan-1-one)] | > 2000 nM | > 2000 nM | > 10000 nM | > 2000 nM | > 10000 nM | > 2000 nM | > 2000 nM | > 2000 nM | > 2000 nM | > 2000 nM
CC(=O)c1c([S+]([O-])Cc2ccccc2)n(C(=O)c2ccc(Br)cc2)c2c(Br)ccc(Cl)c2c1=O (centres unmarked) [Compound 20, 3-acetyl-2-(benzylsulfinyl)-8-bromo-1-(4-bromobenzoyl)-5-chloroquinolin-4(1H)-one] | > 2000 nM | > 2000 nM | > 10000 nM | > 2000 nM | > 10000 nM | > 2000 nM | > 2000 nM | > 2000 nM | > 2000 nM | > 2000 nM
CC(=O)c1c(S(C)(=O)=O)n(C(=O)c2ccc(Br)cc2)c2c(Br)ccc(Cl)c2c1=O [Compound 21, 3-acetyl-8-bromo-1-(4-bromobenzoyl)-5-chloro-2-(methylsulfonyl)quinolin-4(1H)-one] | > 2000 nM | > 2000 nM | > 10000 nM | > 2000 nM | > 10000 nM | > 2000 nM | > 2000 nM | > 2000 nM | > 2000 nM | > 2000 nM
CC(=O)c1c([S+](C)[O-])n(Cc2ccc(F)c(Cl)c2)c2c(Br)ccc(Cl)c2c1=O (centres unmarked) [Compound 22, 3-acetyl-8-bromo-5-chloro-1-(3-chloro-4-fluorobenzyl)-2-(methylsulfinyl)quinolin-4(1H)-one] | > 2000 nM | > 2000 nM | > 10000 nM | > 2000 nM | > 10000 nM | > 2000 nM | > 2000 nM | > 2000 nM | > 2000 nM | > 2000 nM
CC(=O)c1c(SCc2ccccc2)n(C(=O)c2ccc(Br)cc2)c2c(Br)ccc(Cl)c2c1=O [Compound 23, 3-acetyl-2-(benzylthio)-8-bromo-1-(4-bromobenzoyl)-5-chloroquinolin-4(1H)-one] | > 2000 nM | > 2000 nM | > 10000 nM | > 2000 nM | > 10000 nM | > 2000 nM | > 2000 nM | > 2000 nM | > 2000 nM | > 2000 nM
CC(=O)c1c(SC(C)C)[nH]c2c(Br)ccc(Cl)c2c1=O [Compound 24, 3-acetyl-8-bromo-5-chloro-2-(isopropylthio)quinolin-4(1H)-one] | > 2000 nM | > 2000 nM | > 10000 nM | > 2000 nM | > 10000 nM | > 2000 nM | > 2000 nM | > 2000 nM | > 2000 nM | > 2000 nM
CC(=O)c1c([S+]([O-])C(C)C)[nH]c2c(Br)ccc(Cl)c2c1=O (centres unmarked) [Compound 25, 3-acetyl-8-bromo-5-chloro-2-(isopropylsulfinyl)quinolin-4(1H)-one] | > 2000 nM | > 2000 nM | > 10000 nM | > 2000 nM | > 10000 nM | > 2000 nM | > 2000 nM | > 2000 nM | 1720 nM | > 2000 nM
CC(=O)c1c([S+]([O-])C(C)c2ccccc2)[nH]c2c(Br)ccc(Cl)c2c1=O (centres unmarked) [Compound 26, 3-acetyl-8-bromo-5-chloro-2-((1-phenylethyl)sulfinyl)quinolin-4(1H)-one] | > 2000 nM | > 2000 nM | > 10000 nM | > 2000 nM | > 10000 nM | > 2000 nM | > 2000 nM | > 2000 nM | > 2000 nM | > 2000 nM
CC(=O)c1c(SCc2cccc(C#N)c2)[nH]c2c(Br)ccc(Cl)c2c1=O [Compound 27, 3-(((3-acetyl-8-bromo-5-chloro-4-oxo-1,4-dihydroquinolin-2-yl)thio)methyl)benzonitrile] | > 2000 nM | > 2000 nM | > 10000 nM | > 2000 nM | > 10000 nM | > 2000 nM | > 2000 nM | > 2000 nM | > 2000 nM | > 2000 nM
CC(=O)c1c([S+]([O-])Cc2cccc(C#N)c2)[nH]c2c(Br)ccc(Cl)c2c1=O (centres unmarked) [Compound 28, 3-(((3-acetyl-8-bromo-5-chloro-4-oxo-1,4-dihydroquinolin-2-yl)sulfinyl)methyl)benzonitrile] | > 2000 nM | > 2000 nM | > 10000 nM | > 2000 nM | > 10000 nM | > 2000 nM | 1410 nM | > 2000 nM | 660 nM | 880 nM
CC(=O)c1c(SCc2ccc(F)c(Cl)c2)[nH]c2c(Br)ccc(Cl)c2c1=O [Compound 30, 3-acetyl-8-bromo-5-chloro-2-((3-chloro-4-fluorobenzyl)thio)quinolin-4(1H)-one] | > 2000 nM | > 2000 nM | > 10000 nM | > 2000 nM | > 10000 nM | > 2000 nM | > 2000 nM | > 2000 nM | > 2000 nM | > 2000 nM
CC(=O)c1c(SCc2ccc([N+](=O)[O-])cc2)[nH]c2c(Br)ccc(Cl)c2c1=O [Compound 32, 3-acetyl-8-bromo-5-chloro-2-((4-nitrobenzyl)thio)quinolin-4(1H)-one] | > 2000 nM | > 2000 nM | > 10000 nM | > 2000 nM | > 10000 nM | > 2000 nM | > 2000 nM | > 2000 nM | > 2000 nM | > 2000 nM
CSc1c(C(C)=O)c(=O)c2c(Cl)ccc(Br)c2n1S(C)(=O)=O [Compound 35, 3-acetyl-8-bromo-5-chloro-1-(methylsulfonyl)-2-(methylthio)quinolin-4(1H)-one] | > 2000 nM | > 2000 nM | > 10000 nM | > 2000 nM | > 10000 nM | > 2000 nM | > 2000 nM | > 2000 nM | > 2000 nM | > 2000 nM
CC(=O)c1c([S+](C)[O-])n(S(=O)(=O)C(F)(F)F)c2c(Br)ccc(Cl)c2c1=O (centres unmarked) [Compound 36, 3-acetyl-8-bromo-5-chloro-2-(methylsulfinyl)-1-((trifluoromethyl)sulfonyl)quinolin-4(1H)-one] | > 2000 nM | > 2000 nM | > 10000 nM | > 2000 nM | > 10000 nM | > 2000 nM | > 2000 nM | > 2000 nM | > 2000 nM | > 2000 nM
CSc1c(C(C)=O)c(=O)c2c(Cl)ccc(Br)c2n1S(=O)(=O)c1ccc(Cl)cc1 [Compound 37, 3-acetyl-8-bromo-5-chloro-1-((4-chlorophenyl)sulfonyl)-2-(methylthio)quinolin-4(1H)-one] | > 2000 nM | > 2000 nM | > 10000 nM | > 2000 nM | > 10000 nM | > 2000 nM | > 2000 nM | > 2000 nM | > 2000 nM | > 2000 nM
CSc1c(C(C)=O)c(=O)c2c(Cl)ccc(Br)c2n1S(=O)(=O)c1ccc([N+](=O)[O-])cc1 [Compound 38, 3-acetyl-8-bromo-5-chloro-2-(methylthio)-1-((4-nitrophenyl)sulfonyl)quinolin-4(1H)-one] | > 2000 nM | > 2000 nM | > 10000 nM | > 2000 nM | > 10000 nM | > 2000 nM | > 2000 nM | > 2000 nM | > 2000 nM | > 2000 nM
